Measured values reported in PubChem BioAssay AID2060910 (Molecular Pharmacology Branch, DTP, NCI, 2025).

Tested on: 242566-281-R-J2-PDC complex spheroid viability
Test: Anticancer human tumor 242566-281-R-J2-PDC patient-derived pancreatic carcinoma cell line growth inhibition [RAS]
Details: for IC50: curve of first compound; for viability, T/C: stronger effect = lower value; active means viability on the fitted dose curve at most 10% of control; inactive means the rest
Procedure, shortened: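 Multi-cell-type spheroids: tumor cells plus HUVEC endothelial cells and mesenchymal stem cells. RAS-pathway inhibitors were combined with targeted agents, each dosed in half-log steps down from clinical Cmax, or from 10 microM when Cmax was unknown.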

[1] = second compound 0.000949 µM, first compound 0.00316 µM
[2] = second compound 0.000949 µM, first compound 0.01 µM
[3] = second compound 0.000949 µM, first compound 0.0316 µM
[4] = second compound 0.000949 µM, first compound 0.1 µM
[5] = second compound 0.003 µM, first compound 0.00316 µM
[6] = second compound 0.003 µM, first compound 0.01 µM
[7] = second compound 0.003 µM, first compound 0.0316 µM
[8] = second compound 0.003 µM, first compound 0.1 µM
[9] = second compound 0.00949 µM, first compound 0.00316 µM
[10] = second compound 0.00949 µM, first compound 0.01 µM
[11] = second compound 0.00949 µM, first compound 0.0316 µM
[12] = second compound 0.00949 µM, first compound 0.1 µM
[13] = second compound 0.03 µM, first compound 0.00316 µM
[14] = second compound 0.03 µM, first compound 0.01 µM
[15] = second compound 0.03 µM, first compound 0.0316 µM
[16] = second compound 0.03 µM, first compound 0.1 µM
[17] = second compound 0.0949 µM, first compound 0.00316 µM
[18] = second compound 0.0949 µM, first compound 0.01 µM
[19] = second compound 0.0949 µM, first compound 0.0316 µM
[20] = second compound 0.0949 µM, first compound 0.1 µM
[21] = second compound 0.3 µM, first compound 0.00316 µM
[22] = second compound 0.3 µM, first compound 0.01 µM
[23] = second compound 0.3 µM, first compound 0.0316 µM
[24] = second compound 0.3 µM, first compound 0.1 µM
[25] = second compound 0.000949 µM, first compound 0.316 µM
[26] = second compound 0.000949 µM, first compound 1 µM
[27] = second compound 0.000949 µM, first compound 3.16 µM
[28] = second compound 0.000949 µM, first compound 10 µM
[29] = second compound 0.003 µM, first compound 0.316 µM
[30] = second compound 0.003 µM, first compound 1 µM
[31] = second compound 0.003 µM, first compound 3.16 µM
[32] = second compound 0.003 µM, first compound 10 µM
[33] = second compound 0.00949 µM, first compound 0.316 µM
[34] = second compound 0.00949 µM, first compound 1 µM
[35] = second compound 0.00949 µM, first compound 3.16 µM
[36] = second compound 0.00949 µM, first compound 10 µM
[37] = second compound 0.03 µM, first compound 0.316 µM
[38] = second compound 0.03 µM, first compound 1 µM
[39] = second compound 0.03 µM, first compound 3.16 µM
[40] = second compound 0.03 µM, first compound 10 µM
[41] = second compound 0.0949 µM, first compound 0.316 µM
[42] = second compound 0.0949 µM, first compound 1 µM
[43] = second compound 0.0949 µM, first compound 3.16 µM
[44] = second compound 0.0949 µM, first compound 10 µM
[45] = second compound 0.3 µM, first compound 0.316 µM
[46] = second compound 0.3 µM, first compound 1 µM
[47] = second compound 0.3 µM, first compound 3.16 µM
[48] = second compound 0.3 µM, first compound 10 µM
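Further: spheroids exposed to compound for 7 days before readout.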
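Wherever viability, T/C is given: 100% = DMSO vehicle control wells.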

CC(C)n1nc(-c2ccc3oc(N)nc3c2)c2c(N)ncnc21 + CCn1c(-c2cccnc2C(C)OC)c2c3cc(ccc31)N1CCOC(CC(NC(=O)C(C(C)C)N(C)C(=O)C3(F)CCN(C(=O)C#CC(C)(C)N(C)C)CC3)C(=O)N3CCCC(N3)C(=O)OCC(C)(C)C2)C1
18.4 nM: IC50 (second compound 0.3 µM)
44.8 nM: IC50 (second compound 0.003 µM)
27.3 nM: IC50 (second compound 0.03 µM)
43.5 nM: IC50 (second compound 0.000949 µM)
inactive: viability, T/C (second compound 0.000949 µM, first compound 0.000316 µM) 120% | viability, T/C (second compound 0.000949 µM, first compound 0.001 µM) 86.6% | viability, T/C [1] 81.6% | viability, T/C [2] 79.8% | viability, T/C [3] 62.2% | viability, T/C [4] 30.4% | viability, T/C (second compound 0.003 µM, first compound 0.000316 µM) 95.6% | viability, T/C (second compound 0.003 µM, first compound 0.001 µM) 80.3% | viability, T/C [5] 76.2% | viability, T/C [6] 73% | viability, T/C [7] 61.6% | viability, T/C [8] 30.9% | viability, T/C (second compound 0.00949 µM, first compound 0.000316 µM) 102% | viability, T/C (second compound 0.00949 µM, first compound 0.001 µM) 77.9% | viability, T/C [9] 87.7% | viability, T/C [10] 75% | viability, T/C [11] 43.4% | viability, T/C [12] 33.9% | viability, T/C (second compound 0.03 µM, first compound 0.000316 µM) 89.5% | viability, T/C (second compound 0.03 µM, first compound 0.001 µM) 87.6% | viability, T/C [13] 92.4% | viability, T/C [14] 72.7% | viability, T/C [15] 47.6% | viability, T/C [16] 37.9% | viability, T/C (second compound 0.0949 µM, first compound 0.000316 µM) 76.1% | viability, T/C (second compound 0.0949 µM, first compound 0.001 µM) 78.8% | viability, T/C [17] 83.5% | viability, T/C [18] 67.2% | viability, T/C [19] 39.5% | viability, T/C [20] 31.9% | viability, T/C (second compound 0.3 µM, first compound 0.000316 µM) 88% | viability, T/C (second compound 0.3 µM, first compound 0.001 µM) 82% | viability, T/C [21] 70.5% | viability, T/C [22] 58.8% | viability, T/C [23] 42.4% | viability, T/C [24] 30%
20.4 nM: IC50 (second compound 0.0949 µM)
25.2 nM: IC50 (second compound 0.00949 µM)

CC1(O)CCCC1n1c(=O)c(C(F)F)cc2cnc(NC3CCN(S(C)(=O)=O)CC3)nc21 (stereo not drawn) + CCn1c(-c2cccnc2C(C)OC)c2c3cc(ccc31)N1CCOC(CC(NC(=O)C(C(C)C)N(C)C(=O)C3(F)CCN(C(=O)C#CC(C)(C)N(C)C)CC3)C(=O)N3CCCC(N3)C(=O)OCC(C)(C)C2)C1
5990 nM: IC50 (second compound 0.003 µM)
6330 nM: IC50 (second compound 0.3 µM)
inactive: viability, T/C [3] 86.4% | viability, T/C [4] 70.1% | viability, T/C [25] 63.5% | viability, T/C [26] 94.3% | viability, T/C [27] 114% | viability, T/C [28] 26.9% | viability, T/C [7] 77.3% | viability, T/C [8] 63.5% | viability, T/C [29] 71.9% | viability, T/C [30] 91.5% | viability, T/C [31] 110% | viability, T/C [32] 23.6% | viability, T/C [11] 84.6% | viability, T/C [12] 62.4% | viability, T/C [33] 70.3% | viability, T/C [34] 86.8% | viability, T/C [35] 95.9% | viability, T/C [36] 41.2% | viability, T/C [15] 78.6% | viability, T/C [16] 82% | viability, T/C [37] 83.9% | viability, T/C [38] 85.8% | viability, T/C [39] 84.9% | viability, T/C [40] 53.1% | viability, T/C [19] 69.1% | viability, T/C [20] 62.8% | viability, T/C [41] 69.6% | viability, T/C [42] 90% | viability, T/C [43] 90% | viability, T/C [44] 54.4% | viability, T/C [23] 64.8% | viability, T/C [24] 67.4% | viability, T/C [45] 71.6% | viability, T/C [46] 78.9% | viability, T/C [47] 101% | viability, T/C [48] 32.6%
6360 nM: IC50 (second compound 0.000949 µM)
> 10000 nM: IC50 (second compound 0.03 µM) | IC50 (second compound 0.0949 µM)
7700 nM: IC50 (second compound 0.00949 µM)

CCN1CCN(Cc2ccc(Nc3ncc(F)c(-c4cc(F)c5nc(C)n(C(C)C)c5c4)n3)nc2)CC1 + CCn1c(-c2cccnc2C(C)OC)c2c3cc(ccc31)N1CCOC(CC(NC(=O)C(C(C)C)N(C)C(=O)C3(F)CCN(C(=O)C#CC(C)(C)N(C)C)CC3)C(=O)N3CCCC(N3)C(=O)OCC(C)(C)C2)C1
inactive: viability, T/C [1] 102% | viability, T/C [2] 92.2% | viability, T/C [3] 78.6% | viability, T/C [4] 88.5% | viability, T/C [25] 102% | viability, T/C [26] 99.6% | viability, T/C [5] 109% | viability, T/C [6] 93.5% | viability, T/C [7] 81.5% | viability, T/C [8] 88.2% | viability, T/C [29] 103% | viability, T/C [30] 94.7% | viability, T/C [9] 102% | viability, T/C [10] 99.4% | viability, T/C [11] 93.1% | viability, T/C [12] 86.5% | viability, T/C [33] 98.4% | viability, T/C [34] 109% | viability, T/C [13] 97.5% | viability, T/C [14] 94.7% | viability, T/C [15] 85.8% | viability, T/C [16] 97.2% | viability, T/C [37] 88.2% | viability, T/C [38] 117% | viability, T/C [17] 83.8% | viability, T/C [18] 92.8% | viability, T/C [19] 93.4% | viability, T/C [20] 93.1% | viability, T/C [41] 83.8% | viability, T/C [42] 107% | viability, T/C [21] 83.5% | viability, T/C [22] 79.2% | viability, T/C [23] 79.5% | viability, T/C [24] 77.7% | viability, T/C [45] 93% | viability, T/C [46] 116%
> 1000 nM: IC50 (second compound 0.000949 µM) | IC50 (second compound 0.003 µM) | IC50 (second compound 0.00949 µM) | IC50 (second compound 0.03 µM) | IC50 (second compound 0.0949 µM) | IC50 (second compound 0.3 µM)

C[C@@H](NC(=O)c1ncnc(N)c1Cl)c1ncc(C(=O)Nc2cc(C(F)(F)F)c(Cl)cn2)s1 + CCn1c(-c2cccnc2C(C)OC)c2c3cc(ccc31)N1CCOC(CC(NC(=O)C(C(C)C)N(C)C(=O)C3(F)CCN(C(=O)C#CC(C)(C)N(C)C)CC3)C(=O)N3CCCC(N3)C(=O)OCC(C)(C)C2)C1
> 10000 nM: IC50 (second compound 0.000949 µM) | IC50 (second compound 0.003 µM) | IC50 (second compound 0.00949 µM) | IC50 (second compound 0.03 µM) | IC50 (second compound 0.0949 µM) | IC50 (second compound 0.3 µM)
inactive: viability, T/C [3] 126% | viability, T/C [4] 107% | viability, T/C [25] 112% | viability, T/C [26] 103% | viability, T/C [27] 107% | viability, T/C [28] 63.8% | viability, T/C [7] 106% | viability, T/C [8] 100% | viability, T/C [29] 106% | viability, T/C [30] 105% | viability, T/C [31] 97.3% | viability, T/C [32] 87.7% | viability, T/C [11] 113% | viability, T/C [12] 104% | viability, T/C [33] 95.1% | viability, T/C [34] 115% | viability, T/C [35] 91.8% | viability, T/C [36] 83.1% | viability, T/C [15] 105% | viability, T/C [16] 90.8% | viability, T/C [37] 109% | viability, T/C [38] 90.6% | viability, T/C [39] 77.3% | viability, T/C [40] 101% | viability, T/C [19] 94.9% | viability, T/C [20] 105% | viability, T/C [41] 90.7% | viability, T/C [42] 105% | viability, T/C [43] 69.8% | viability, T/C [44] 98.1% | viability, T/C [23] 90.8% | viability, T/C [24] 84.5% | viability, T/C [45] 108% | viability, T/C [46] 88.1% | viability, T/C [47] 85.5% | viability, T/C [48] 86.7%
